# Results reported in patent US9808527B2, “Methods and compositions for treating HIV infections” (priority 2006, dated 2017).
# “Also recorded” adds a separate entry of the source. Where two headings read alike, the source gives them in different places.
# Key:
# HIV = details: read-out: ID50 (the source's name); cited from earlier work
# [1] = target: T1, CFP- and YFP-tagged HIV-1 protease subunits (Human immunodeficiency virus type 1 group M subtype B, UniProt P12497); type: cell-based; details: for dose response of dimerization inhibition: 0.001-10 μM (GRL-0026A 0.1-10 μM), 72 hrs
# T1 construct: expressed in transfected cells; host or cells: Cos-7
# Method: After 72 hr, cultured cells were examined in the FRET-HIV-1 assay system using confocal microscopy Fluoview FV500 confocal laser scanning microscope, and CFP^A/B were determined and plotted. […] The FRET efficiency was determined following acceptor photobleaching as previously described (Bastiaens et al., EMBO 1996; Siegel et al., Science's stke 2000; Firulli et al., Nature genetics, 2005; Szczesna et al., JBC 2003). Dequenching of the donor CFP by selective photobleaching of the acceptor YFP was performed by first obtaining YFP and CFP images at the same focal plane, followed by illuminating for 3 min the same image at wavelength of 488 nm with a laser power set at the maximum intensity to bleach YFP and re-capturing the same CFP and YFP images. The changes in the CFP and YFP fluorescence intensity in the images of selected regions were examined and quantified using Olympus FV500 Image software system. Background values were obtained from the regions where no cells were present and were subtracted from the values for the cells examined in all calculations. For each chimeric protein, the data were obtained from at least three independent experiments. FRET efficiency was determined using the formula: ET=(1−(IDA/ID))×100, where IDA and ID represent the steady-state donor fluorescence in the presence and absence of the acceptor, respectively. Digitized image data obtained from the experiment were prepared for presentation using Photoshop 6.0 (Adobe systems, Mountain View, Calif.). Ratios of intensities of ECFP fluorescence after photobleaching to ECFP fluorescence prior to photobleaching were determined. The ratios of more than 1 indicate that dimerization of CFP- and YFP-tagged protease subunits occurred and those of less than 1 indicate that dimerization was blocked by the test agent.
# Generation of FRET-based HIV-1 expression assay. The basic concepts of the intermolecular fluorescence resonance energy transfer (FRET)-based HIV-1-expression assay (FRET-HIV-1 assay) are shown in FIG. 7. Within a plasmid (pHIV-1NL4-3), which encodes a full-length molecular infectious HIV-1 clone, the gene encoding a cyan fluorescent donor protein (CFP) was attached to the downstream end (C-terminus) of the gene encoding an HIV-1 protease subunit through the flexible linker added (five alanines), generating pHIV-1NL4-3/CFP (FIG. 7A). Within the other plasmid (pHIV-1NL4-3), the gene encoding a yellow fluorescent acceptor protein (YFP) was attached to the downstream end of protease-encoding gene in the same manner, generating pHIV-1NL4-3/YFP. Both CFP and YFP were designed to have phenylalanine and proline in the connection with reverse transcriptase so that the protease is cleaved from reverse transcriptase when two subunits dimerize and the dimerized protease acquires enzymatic activity. […] A focused laser beam excitation of CFP (triggered by Helium-Cadmium laser) results in rapid energy transfer to YFP, and most of the fluorescence photons are emitted by YFP (Miyawaki et al. Nature 388(6645):882-887 (1997)). If the dimerization is blocked, the average distance between CFP and YFP becomes larger and the energy transfer rate is decreased and the fraction of photons emitted by YFP is lowered.
# In order to interpret the energy transfer efficiency quantitatively, an acceptor photobleaching technique was used, in which the change in CFP emission quenching is measured by comparing the value before and after selectively photobleaching YFP, which prevents problems associated with variable expression levels.
# HIV-1LAI = test: MTT assay, MT-2 cells exposed to HIV-1LAI (acute HIV-1 infection assay); type: cell-based
# Method: Drug susceptibility assay. The susceptibility of HIV-1LAI, HIV-2EHO, HIV-2ROD, to various drugs and the cytotoxicity of those drugs was determined by using the MTT assay. Briefly, MT-2 cells (2×10^4/mL) were exposed to 100 TCID50s (50% tissue culture infectious doses) of HIV-1LAI, HIV-2EHO, or HIV-2ROD in the presence or absence of various concentrations of drugs in 96-well microculture plates and were incubated at 37° C. for 7 days. After 100 μL of the medium was removed from each well, 3-(4,5-dimethylthiazol-2-yl)-2,5-diphenyltetrazolium bromide (MTT) solution (10 μL, 7.5 mg/mL in phosphate-buffered saline) was added to each well in the plate, followed by incubation at 37° C. for 4 hours. […] All assays were performed in duplicate or triplicate. To determine the sensitivity of HIV-1Ba-L, HIV-1ERS104 pre, and clinical multi-drug-resistant HIV-1 isolates and different subtypes of HIV-1 isolates to drugs, phytohemagglutinin-activated peripheral blood mononuclear cells (PHA-PBMs; 10^6/mL) were exposed to 50 TCID50 (50% tissue infectious dose) of each HIV-1 isolate and cultured in the presence or absence of various concentrations of drugs in 10-fold serial dilutions in 96-well microtiter culture plates. To determine the drug susceptibility of certain laboratory HIV-1 strains (HIV-1NL4-3), MT-4 cells were used as target cells. MT-4 cells (10^5/mL) were exposed to 100 TCID50 of wild type HIV-1NL4-3 and PI-resistant HIV-1NL4-3 in the presence or absence of various concentrations of drugs and were incubated at 37° C. On day 7 of culture, the supernatant was harvested and the amount of p24 Gag protein was determined by using a fully automated chemiluminescent enzyme immunoassay system (Lumipulse F; Fujirebio Inc., Tokyo, Japan) (22). […] All assays were performed in duplicate or triplicate.
# [2] = target: dimerized mature HIV-1 protease (Human immunodeficiency virus type 1 group M subtype B, UniProt P12497); test: Assay for effects on dimerized mature protease (cycloheximide, FRET); type: cell-based; details: 1 μM added on day 5 after cycloheximide 50 μg/ml
# Method: […] Cellular protein synthesis was monitored every 24 hours by determining levels of p24 Gag protein produced into culture medium using the fully automated chemiluminescent enzyme immunoassay system (Lumipulse F; Fujirebio Inc., Tokyo, Japan). The cells were exposed to TMC114 (1 μM) on day 5 and beyond of culture and analyzed under Fluoview FV500 confocal laser scanning microscope (OLYMPUS Optical Corp) at room temperature.
# When the CFP^A/B ratios determined were greater than 1.0, it was determined that HIV-1 protease had been generated and dimerization had occurred. The production of HIV-1 was monitored every 24 hours following transfection by determining levels of p24 Gag protein produced into culture medium as described by Koh et al. Antimicrob Agents Chemother 47:3123-9 (2003).
# Dissociation of already formed dimer. TMC114 was examined for its ability to dissociate the protease once dimerized within cells producing infectious HIV-1 virions. Cos-7 cells were co-transfected with wild-type pNLPR-CFP and -YFP plasmids, exposed to cycloheximide (50 μg/mL) in 24, 48, 72, and 96 hrs of culture and beyond, the cells exposed to 1 μM TMC114 on day 5 of culture and beyond, cellular protein synthesis was monitored every 24 hours by determining levels of p24 Gag protein produced into culture medium, and the values of the ratio were determined at various time points. […]
# HIV-1 protease = target: T2, HIV-1 protease (Human immunodeficiency virus type 1 group M subtype B, UniProt P04585, C555A/C583A/L521I/L551I/Q495K/V491I); test: biochemical; type: biochemical
# T2 construct: Wild-type PR at final concentrations of 160-190 nM were added
# Text: Enzyme kinetics. The chromogenic substrate Lys-Ala-Arg-Val-Nle-p-nitroPhe-Glu-Ala-Nle-amide (Sigma, St. Louis, Mo.) was used to determine the kinetic parameters (Kovalevsky et al. J Mol Biol 363(1):161-173 (2006), Ghosh et al. J Med Chem 49(17):5252-5261 (2006)). […] The kcat and Km values were obtained employing standard data fitting techniques for a reaction obeying Michaelis-Menten kinetics. The data curves were fitted using SigmaPlot 8.0.2 (SPSS Inc., Chicago, Ill.). The active enzyme concentrations were calculated from the intercept of the linear fit to the IC50 versus [S] plots with the IC50 axis. The Ki values were obtained from the IC50 values estimated from an inhibitor dose-response curve with the spectroscopic assay using the equation Ki=(IC50-[E]/2)/(1+[S]/Km), where [E] and [S] are the PR and substrate concentrations, respectively (Maibaum & Rich J Med Chem 31(34):625-629 (1988)). The Ki values were measured at four to five substrate concentrations. The measurement was repeated at least three times to produce the average values.
# [3] = MT-2 cells, 100 TCID50 of HIV-1LAI, MTT assay on day 7, read-out: IC50 against HIV-1LAI
# [4] = Human immunodeficiency virus 1, MT2, 168 h, read-out: IC50 against HIV-1LAI, MT-2 cells, 100 TCID50 of HIV-1LAI, MTT assay on day 7
# [5] = Human immunodeficiency virus 1, MT2, 168 h, read-out: MTT assay (IC50, nM), Human CD4+ MT-2 cells, 100 TCID50 of HIV-1LAI, day 7
smiles,measurement,setting,value
COc1ccc(S(=O)(=O)N(CC(C)C)CC(O)C(Cc2ccccc2)NC(=O)OC2COC3OCCCC23)cc1 (centres unmarked),IC50,HIV,4.5 nM
"Cc1ccnc2c1NC(=O)c1cccnc1N2C1CC1 [NVP, nevirapine]",inhibition of protease dimerization,"[1]; 1 μM, Cos-7 cells",failed to inhibit the dimerization
same,inhibition of protease dimerization,"[1]; 1 μM, Cos-7 cells, listed as nevirapine",did not block the dimerization; also recorded: failed to inhibit HIV-1 protease dimerization
CCCCN1C(=O)[C@@H]([C@H](O)C2CCCCC2)NC(=O)C12CCN(Cc1ccc(Oc3ccc(C(=O)O)cc3)cc1)CC2 [aplaviroc],inhibition of protease dimerization,"[1]; 1 μM, Cos-7 cells",did not block the dimerization; also recorded: failed to inhibit the dimerization; also recorded: failed to inhibit HIV-1 protease dimerization
"Nc1nc(NC2CC2)c2ncn([C@H]3C=C[C@@H](CO)C3)c2n1 [ABC, abacavir]",inhibition of protease dimerization,"[1]; 10 μM, Cos-7 cells",failed to inhibit the dimerization
same,inhibition of protease dimerization,"[1]; 10 μM, Cos-7 cells, listed as abacavir",did not block the dimerization; also recorded: failed to inhibit HIV-1 protease dimerization
COc1ccc(S(=O)(=O)N(CC(C)C)C[C@@H](O)[C@H](Cc2ccccc2)NC(=O)C[C@H]2CO[C@H]3OCC[C@@H]23)cc1 [GRL-0026A],dose response of dimerization inhibition,[1],Dose-responsive dimerization inhibition
same,IC50,HIV-1LAI; [3],480 nM
"CCC[C@@]1(CCc2ccccc2)CC(O)=C([C@H](CC)c2cccc(NS(=O)(=O)c3ccc(C(F)(F)F)cn3)c2)C(=O)O1 [TPV, tipranavir]",IC50,HIV-1LAI; [4],100 nM
"CC(C)CN(C[C@@H](O)[C@H](Cc1ccccc1)NC(=O)O[C@H]1CO[C@H]2OCC[C@H]21)S(=O)(=O)c1ccc(N)cc1 [DRV, darunavir]",inhibition of protease dimerization,"[1]; 1 μM, Cos-7 cells",disrupt protease dimerization
same,inhibition of protease dimerization,"[1]; 1 μM, Cos-7 cells, listed as TMC114",dimerization was effectively blocked; also recorded: blocked the dimerization; also recorded: blocked protease dimerization
same,concentration effectively blocking FRET / disrupting protease dimerization,"[1]; in culture, Cos-7 cells",0.1 µM
same,dissociation of already dimerized protease,[2],failed to dissociate mature protease dimer
same,dissociation of already dimerized protease,[2]; listed as TMC114,no inhibition of FRET was detected; also recorded: did not appear to reverse the dimerization
same,IC50,HIV-1LAI; [4],3 nM
same,IC50,HIV-1LAI; [5],~3 nM
COc1ccc(S(=O)(=O)N(CC(C)C)CC(O)C(Cc2ccccc2)NC(=O)OC2COC3OCCC23)cc1 (centres unmarked) [drawing 20],IC50,HIV,1.4 nM
"Cc1nc(COc2ccc(C[C@H](NC(=O)O[C@H]3CO[C@H]4OCC[C@H]43)[C@H](O)CN(CC(C)C)S(=O)(=O)c3ccc4c(c3)OCO4)cc2)cs1 [BCV, brecanavir]",inhibition of protease dimerization,"[1]; 1 μM, Cos-7 cells",disrupt protease dimerization
same,dose response of dimerization inhibition,[1],Dose-responsive dimerization inhibition
same,Ki,HIV-1 protease,0.0068 nM
same,IC50,HIV-1LAI; [4],0.2 nM
CC(C)CN(CC(O)C(Cc1ccccc1)NC(=O)OC1COC2OCCC12)S(=O)(=O)c1ccc(N)cc1 (centres unmarked),IC50,HIV,4.5 nM
CC(C)CN(C[C@@H](O)[C@H](Cc1ccccc1)NC(=O)O[C@@H]1C[C@@H]2CCO[C@@H]2C1)S(=O)(=O)c1ccc(CO)cc1 [GRL-06579A],inhibition of protease dimerization,"[1]; 1 μM, Cos-7 cells",dimerization was effectively blocked; also recorded: disrupt protease dimerization
same,Ki,"HIV-1 protease; wild-type PR, pH 5.0, read-out: Ki against HIV-1 protease",0.0035 nM
same,IC50,HIV-1LAI; [3],1 nM
"O=C1Nc2ccc(Cl)cc2[C@@](C#CC2CC2)(C(F)(F)F)O1 [EFV, efavirenz]",inhibition of protease dimerization,"[1]; 1 μM, Cos-7 cells",failed to inhibit the dimerization
same,inhibition of protease dimerization,"[1]; 1 μM, Cos-7 cells, listed as efavirenz",did not block the dimerization; also recorded: failed to inhibit HIV-1 protease dimerization
Cc1ccc(S(=O)(=O)N(CC(C)C)CC(O)C(Cc2ccccc2)NC(=O)OC2COC3OCCC23)cc1 (centres unmarked),IC50,HIV,3.5 nM
COc1ccc(S(=O)(=O)N(CC(C)C)CC(O)C(Cc2ccccc2)NC(=O)OC2COC3OCCC23)cc1 (centres unmarked) [TMC126],inhibition of protease dimerization,"[1]; 1 μM, Cos-7 cells",dimerization was effectively blocked; also recorded: disrupt protease dimerization
same,dose response of dimerization inhibition,[1],Dose-responsive dimerization inhibition
same,IC50,HIV-1LAI; [4],0.3 nM
same,IC50,HIV-1LAI; [5],0.3 nM
